The compounds below were run on HT-29 cells (assay: HT-29 necroptosis cell viability assay (TNF-α/SMAC mimetic/zVAD-FMK, CellTiter-Glo)). Settings: Homo sapiens, HT-29, HT-29 cells, necroptosis induced by TNF-α/SMAC mimetic/zVAD-FMK, CellTiter-Glo; read-out: Activity (IC50 class).
Assay type: cell-based
Procedure, shortened: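 Necroptosis was triggered by TNF-α (10 ng/ml), SMAC mimetic (6 μM) and zVAD-FMK (10 μM) in serum-free medium during 20 h compound exposure (10 concentrations, threefold steps) of HT-29 cells. IC50 from duplicate dose-responses uses CellTiter-Glo ATP luminescence as viability read-out.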

Structure (SMILES)	IC50 [nM]
Cc1nc(C2=CCOCC2)sc1Oc1ccc(-n2ncn(Cc3c(F)cccc3F)c2=O)cc1 [Example 631, 4-(2,6-difluorobenzyl)-2-(4-((2-(3,6-dihydro-2H-pyran-4-yl)-4-methylthiazol-5-yl)oxy)phenyl)-2,4-dihydro-3H-1,2,4-triazol-3-one]	< 100
Cc1nc(C2=CCOC2)sc1Oc1ccc(-n2ncn(Cc3c(F)cccc3F)c2=O)cc1 [Example 632, 4-(2,6-difluorobenzyl)-2-(4-((2-(2,5-dihydrofuran-3-yl)-4-methylthiazol-5-yl)oxy)phenyl)-2,4-dihydro-3H-1,2,4-triazol-3-one]	< 100
Cc1nc(C2=NCCN2C)sc1Oc1ccc(-n2ncn(Cc3c(F)cccc3F)c2=O)cc1 [Example 633, 4-(2,6-difluorobenzyl)-2-(4-((4-methyl-2-(1-methyl-4,5-dihydro-1H-imidazol-2-yl)thiazol-5-yl)oxy)phenyl)-2,4-dihydro-3H-1,2,4-triazol-3-one]	< 100
Cc1nc(C=O)sc1Oc1ccc(-n2ncn(Cc3c(F)cccc3F)c2=O)cc1F [Example 634, 5-[4-[4-[(2,6-difluorophenyl)methyl]-5-oxo-1,2,4-triazol-1-yl]-2-fluoro-phenoxy]-4-methyl-thiazole-2-carbaldehyde]	< 100
Cc1nc(C(N)=O)sc1OC1CCC(n2nc3n(c2=O)[C@H](c2ccccc2)CC3)CC1 (stereo partly drawn) [Example 635, (S)-4-methyl-5-((4-(3-oxo-5-phenyl-6,7-dihydro-3H-pyrrolo[2,1-c][1,2,4]triazol-2(5H)-yl)cyclohexyl)oxy)thiazole-2-carboxamide]	1000 to 10000
Cc1nc(CC(=O)O)sc1Oc1ccc(-n2ncn(Cc3c(F)cccc3F)c2=O)cc1F [Example 637, 2-[5-[4-[4-[(2,6-difluorophenyl)methyl]-5-oxo-1,2,4-triazol-1-yl]-2-fluoro-phenoxy]-4-methyl-thiazol-2-yl]acetic acid]	< 100
Cc1nc(C(=O)NC2CCOCC2)sc1Oc1ccc(-n2ncn(Cc3ccccc3F)c2=O)cc1F [Example 642, 5-[2-fluoro-4-[4-[(2-fluorophenyl)methyl]-5-oxo-1,2,4-triazol-1-yl]phenoxy]-4-methyl-N-tetrahydropyran-4-yl-thiazole-2-carboxamide]	< 100
Cc1nc(C(N)=O)sc1Oc1ncc(-n2ncn(Cc3c(F)cccc3F)c2=O)cc1F [Example 643, 5-((5-(4-(2,6-difluorobenzyl)-5-oxo-4,5-dihydro-1H-1,2,4-triazol-1-yl)-3-fluoropyridin-2-yl)oxy)-4-methylthiazole-2-carboxamide]	< 100
Cc1ncsc1Oc1ncc(-n2ncn(Cc3c(F)cccc3F)c2=O)cc1F [Example 644, 4-(2,6-difluorobenzyl)-2-(5-fluoro-6-((4-methylthiazol-5-yl)oxy)pyridin-3-y1)-2,4-dihydro-3H-1,2,4-triazol-3-one]	< 100
Cc1nc(Br)sc1Oc1ncc(-n2ncn(Cc3c(F)cccc3F)c2=O)cc1F [Example 645, 2-(6-((2-bromo-4-methylthiazol-5-y1)oxy)-5-fluoropyridin-3-yl)-4-(2,6-difluorobenzyl)-2,4-dihydro-3H-1,2,4-triazol-3-one]	< 100
COC(=O)c1nc(C)c(Oc2ncc(-n3ncn(Cc4c(F)cccc4F)c3=O)cc2F)s1 [Example 646, methyl 5-((5-(4-(2,6-difluorobenzyl)-5-oxo-4,5-dihydro-1H-1,2,4-triazol-1-yl)-3-fluoropyridin-2-yl)oxy)-4-methylthiazole-2-carboxylate]	< 100
Cc1nc(C(N)=O)sc1Oc1ncc(-n2ncn(Cc3c(F)cccc3F)c2=O)cc1Cl [Example 647, 5-((3-chloro-5-(4-(2,6-difluorobenzy1)-5-oxo-4,5-dihydro-1H-1,2,4-triazol-1-yl)pyridin-2-yl)oxy)-4-methylthiazole-2-carboxamide]	< 100
COC(=O)c1nc(C)c(Oc2ncc(-n3ncn(Cc4c(F)cccc4F)c3=O)cc2Cl)s1 [Example 649, methyl 5-((3-chloro-5-(4-(2,6-difluorobenzyl)-5-oxo-4,5-dihydro-1H-1,2,4-triazol-1-yl)pyridin-2-yl)oxy)-4-methylthiazole-2-carboxylate]	< 100
Cc1c(CC#N)noc1Oc1ccc(-n2ncn(Cc3c(F)cccc3F)c2=O)cc1F [Example 650, 2-(5-(4-(4-(2,6-difluorobenzyl)-5-oxo-4,5-dihydro-1H-1,2,4-triazol-1-yl)-2-fluorophenoxy)-4-methylisoxazol-3-yl)acetonitrile]	< 100
Cc1nc(C(N)C(F)(F)F)sc1Oc1ccc(-n2ncn(Cc3c(F)cccc3F)c2=O)cc1F (centres unmarked) [Example 651, 2-(4-((2-(1-amino-2,2,2-trifluoroethyl)-4-methylthiazol-5-yl)oxy)-3-fluorophenyl)-4-(2,6-difluorobenzyl)-2,4-dihydro-3H-1,2,4-triazol-3-one]	100 to 1000
Cc1nc(C#N)sc1Oc1ncc(-n2ncn(Cc3c(F)cccc3F)c2=O)cc1Cl [Example 653, 5-[[3-chloro-5-[4-[(2,6-difluorophenyl)methyl]-5-oxo-1,2,4-triazol-1-yl]-2-pyridyl]oxy]-4-methyl-thiazole-2-carbonitrile]	100 to 1000
CCOC(=O)c1nc(COc2ccc(-n3ncn(Cc4c(F)cccc4F)c3=O)cc2F)cs1 [Example 654, Ethyl 4-((4-(4-(2,6-difluorobenzyl)-5-oxo-4,5-dihydro-1H-1,2,4-triazol-1-yl)-2-fluorophenoxy)methyl)thiazole-2-carboxylate]	1000 to 10000
N#CCc1nc(COc2ccc(-n3ncn(Cc4c(F)cccc4F)c3=O)cc2F)cs1 [Example 655, 2-[4-[[4-[4-[(2,6-difluorophenyl)methyl]-5-oxo-1,2,4-triazol-1-yl]-2-fluoro-phenoxy]methyl]thiazol-2-yl]acetonitrile]	100 to 1000
O=C1NC2(CO1)CN(c1cc(Oc3ccc(-n4ncn(Cc5c(F)cccc5F)c4=O)cc3F)c(F)cn1)C2 [Example 656, 2-[4-[4-[4-[(2,6-difluorophenyl)methyl]-5-oxo-1,2,4-triazol-1-yl]-2-fluoro-phenoxy]-5-fluoro-2-pyridyl]-7-oxa-2,5-diazaspiro[3.4]octan-6-one]	< 100

Same assay, conditions: Homo sapiens, HT-29, HT-29 necroptosis cell viability assay; class symbols for IC50; read-out: Activity

Structure (SMILES)	IC50 [nM]
Cc1nc(N)sc1S(=O)(=O)c1ccc(-n2ncn(Cc3ccccc3)c2=O)cc1 [Example 627, 2-(4-((2-amino-4-methylthiazol-5-yl)sulfonyl)phenyl)-4-benzyl-2,4-dihydro-3H-1,2,4-triazol-3-one]	100 to 1000
Cc1nc(NC(=O)OC(C)(C)C)sc1S(=O)(=O)c1ccc(-n2ncn(Cc3ccccc3)c2=O)cc1 [Example 629, tert-butyl (5-((4-(4-benzyl-5-oxo-4,5-dihydro-1H-1,2,4-triazol-1-yl)phenyl)sulfonyl)-4-methylthiazol-2-yl)carbamate]	100 to 1000
N#Cc1cc(Oc2ccc(-n3ncn(Cc4c(F)cccc4F)c3=O)cc2)ncn1 [Example 630, 6-(4-(4-(2,6-difluorobenzyl)-5-oxo-4,5-dihydro-1H-1,2,4-triazol-1-yl)phenoxy)pyrimidine-4-carbonitrile]	1000 to 10000

Same assay, conditions: Homo sapiens, HT-29, read-out: Activity (IC50 class)

Structure (SMILES)	IC50 [nM]
Cc1sc(CCO)nc1Oc1ccc(-n2ncn(Cc3c(F)cccc3F)c2=O)cc1F [Example 652, 4-[(2,6-difluorophenyl)methyl]-2-[3-fluoro-4-[2-(2-hydroxyethyl)-5-methyl-thiazol-4-yl]oxy-phenyl]-1,2,4-triazol-3-one]	100 to 1000

— US20250179061A1 (SIRONAX LTD., priority 2022, published 2025)
